Here are results for 13 compounds from patent publication US8981149B2, “Compounds modulating the hedgehog protein signaling pathway, marked forms thereof, and applications” (Centre National De La Recherche Scientifique, priority 2011, dated 2015).

For one data set, the system named is C3H10T1/2 cells. Kind of data set: Differentiation of C3H10T1/2 cells induced by SAG, alkaline phosphatase (AP) activity. The format is cell-based, mouse. As for the experimental part: The test compounds of formula (I) were dissolved in dimethylsulfoxide up to a concentration of 10 mM, then stored at a temperature of −20° C. until used.
The line of C3H10T1/2 pluripotent fibroblast cells (ATCC) was cultured in the conditions recommended by the ATCC. These cells were activated using 0.1 μM of SAG according to the methods described by Chen et al., Proc. Natl. Acad. Sci. USA, 2002, 99, 14071 and Frank-Kamenetsky et al., J. Biol., 2002, 1, 10.
Activation by SAG causes differentiation of the cell line and allows it to express alkaline phosphatase (AP). It was thus possible to measure the activity of the Hedgehog protein signalling pathway via measurement of the alkaline phosphatase (AP) activity.
The C3H10T1/2 cells were seeded on 96-well plates at a density of 5.10^3 cells per well, 24 hours before adding the test compounds at a concentration varying from 1 nM to 30 μM and in the presence of 0.1 μM of SAG, using DMEM (Dulbecco's Modified Eagle's Medium) with 10% fetal calf serum as culture medium. The tests were carried out in quadruplicate. The plates were then incubated for 5 to 6 days at a temperature of 37° C. under 5% CO2 atmosphere. The cells were then washed in cold phosphate buffer (“Phosphate Buffer Serum”: PBS), then lysed by sonication at 4° C. in 50 μL of a solution containing 0.9% of NaCl and 0.2% of Triton X-100.
Measurement of the alkaline phosphatase (AP) activity in the lysates thus obtained was then performed according to the method described by Pepinsky et al. (J. Biol. Chem., 1998, 273, 14037). After adding 100 μL of reaction buffer (200 mM Tris-HCl; pH 10.5; 0.4 M of 2-amino-2-methylpropanol and 8 mM of MgCl2) and 50 μL of substrate (4 mM of p-nitrophenyl disodium phosphate), the lysates were incubated at 37° C. for 30-60 min, then the optical density was read at a wavelength of 415 nm.

Data set [1] addresses T1, human Smoothened receptor (Homo sapiens, UniProt Q99835).
T1 construct: expressed in transfected cells
Briefly: Inhibition of binding of 3H-(7d) to membranes of HEK-hSmo cells. Particulars: for Ki: read-out: Ki ± SEM, binding of compound 3H-(7d). As for the experimental part: The binding test is carried out on membranes enriched with Smoothened receptor. Cells of the HEK-hSmo line were used for preparing these membranes. The cells are washed and recovered in iced PBS. After centrifugation at 100 g for 7 minutes at 4° C., the pellet is taken up in 10 times its volume of an iced buffer A (50 mM HEPES, pH 7.4, 1 mM EDTA) with addition of 10 μl of a cocktail of protease inhibitors (PEAK, Sigma) per ml of buffer, then it is homogenized using a Polytron grinding mill. After centrifugation at 500 g for 30 minutes at 4° C., which makes it possible to remove the nuclei from the cells, the supernatant is centrifuged again at 48 000 g for 45 min at 4° C. The pellet is taken up in 2 ml of buffer A with PEAK added, then the suspension is homogenized using a glass conical grinding mill and is passed through a 23 G needle. Finally, aliquots are placed in Eppendorf tubes and stored at −80° C. The concentration of total protein in the preparation is determined by Lowry's method using BSA for preparing the standard range.
The membranes are resuspended in a buffer (50 mM HEPES and 3 mM MgCl2) containing 0.2% of BSA. The tests of binding of ^3H-(7d) are carried out in polypropylene tubes. The membranes (2 μg of proteins) are incubated with the ^3H-(7d) in the presence or absence of the cold test compounds for 3 hours at 37° C. in a final volume of 400 μl. Incubation is stopped by immersing the tubes in iced water followed by rapid filtration (Brandel) through a glass fiber filtration membrane (GF/C) treated beforehand with 0.3% of polyethylenimine, which can reduce the nonspecific binding of the ^3H-(7d) to the filtration membrane. The radioactivity retained on the filter is measured in the presence of 3 ml of scintillating agent in a liquid scintillation counter.
In this experiment, the cold ligand competes with the radioactive ligand for binding to the receptor, and the affinity (Ki) of each cold ligand for the receptor can be analyzed based on the IC50 values deduced from the inhibition curves.

Data set [2] is described as follows: Binding of 3H-(7d) to membranes of HEK293 cells not transfected with human Smo cDNA. Particulars: 1 μM.
The test system of a further data set is PCGs of rat cerebellum. Kind of data set: Proliferation of granule cell precursors (PCGs) of rat cerebellum induced by SAG, 3H-thymidine incorporation. The format is cell-based. To be noted: proliferation induced by SAG (0.01 μM), 3H-thymidine incorporation, read-out: IC50 ± SEM, PCGs of rat cerebellum (3). On the procedure:
The granule cell precursors (GCP) are isolated from cerebellums of rats (IFFA-CREDO, France), 8 days after birth (P8). The cerebellums are taken, cut into small pieces, placed in Krebs-Ringer buffer (120 mM NaCl, 5 mM KCl, 1 mM KH2PO4, 25 mM NaHCO3, 15 mM glucose, 0.04 mM phenol red) and incubated for 15 minutes at room temperature in a dissociation buffer composed of Krebs-Ringer with addition of 250 mg/ml of trypsin (Sigma, France). Enzymatic dissociation is stopped by adding an equal volume of Krebs-Ringer buffer containing 250 mg/ml of a trypsin inhibitor and 80 mg/ml of DNase (Sigma, France). The tissue is centrifuged at 100 g for 10 seconds and the pellet obtained is resuspended and triturated using Pasteur pipettes of decreasing diameter to obtain a suspension of isolated cells. This suspension is centrifuged at 200 g for 5 minutes and the pellet obtained is resuspended in Neurobasal medium supplemented with 1 mM of pyruvate, 2 mM L-glutamine, penicillin/streptomycin and 1% of supplement N2, 60 mg/ml N-acetyl cysteine and […] of bovine serum albumin (BSA, Sigma, France).
The cerebellar GCPs obtained are transferred to 96-well plates treated beforehand with poly-D-lysine at a density of 2.10^5 cells/well. SAG in the presence or absence of the other test compounds is added immediately. 12 hours before the end of culture, tritiated thymidine (^3H-thymidine) is added. The cells are aspirated and recovered on a glass fiber filter (GF/C) using an automated cell collector (Brandel, USA). The amount of radioactivity incorporated by the cells was quantified in the presence of a scintillating agent in a liquid scintillation counter (Wallac, USA).
The cerebellar PCGs proliferate in response to activation of the Shh signalling pathway, a response that can be inhibited by the Smo antagonists (Rohatgi et al., 2009, Proc. Natl. Acad. Sci. USA 106: 3196-201). We therefore analyzed the capacity of compound (7d) for inhibiting the proliferation of the PCGs of rat cerebellum in primary culture by measuring the incorporation of tritiated thymidine, a marker of DNA newly synthesized during the proliferation process.
Background: Dividing cells build labelled thymidine or BrdU into new DNA.

The next data set addresses T2, human Smo receptor (Homo sapiens, UniProt Q99835).
T2 construct: expressed in transfected cells
Briefly: Competition with bodipy-cyclopamine (BC) binding in HEK-hSmo cells. To be noted: for IC50: bodipy-cyclopamine (5 nM), HEK-hSmo cells, read-out: IC50 ± SEM, BC binding (4). On the procedure:
Cells of the HEK293 line stably transfected with the human Smo receptor are used. The experiment was conducted according to the protocol described in Roudaut et al., Mol. Pharmacol. 79: 453-460, 2011.
At the end of the incubation, the cells are fixed and stained with DAPI, a fluorescent molecule with high affinity for DNA which makes it possible to visualize the nuclei in blue in fluorescence microscopy.

Another data set concerns cells. Particulars: Borzillo et al., 2005; cited from earlier work.
The mark [3] stands for this setting: Mus musculus, C3H 10T1/2, after induction by SAG at 0.1 μM, read-out: IC50, inhibition of alkaline phosphatase (AP) activity, differentiation of C3H10T1/2 cells.
The mark [4] stands for this setting: Mus musculus, C3H 10T1/2, AP activity, differentiation induced by SAG (0.1 μM), read-out: IC50 ± SEM, C3H10T1/2 cells (2).
[5] abbreviates: 0.35 nM 3H-(7d), HEK-hSmo membranes, 3 hours at 37° C., read-out: IC50 ± SEM, binding of compound 3H-(7d).
Setting [6] is: calculated from IC50, HEK-hSmo membranes.
Where [7] appears, read: AP activity, differentiation induced by SAG (0.1 μM), read-out: IC50 ± SEM, C3H10T1/2 cells (2).
[8] abbreviates: after induction by SAG at 0.1 μM, read-out: IC50, inhibition of alkaline phosphatase (AP) activity, differentiation of C3H10T1/2 cells.

Several values for one entry are separate records, joined by “and”; a condition that tells them apart may be missing. Identical values can stand only once. Counter-ions that a name gives are not always drawn. Like-named read-outs stand apart in the source and are kept apart here. Where only a bound is given, the exact number is not on record here.

T1 sequence (Q99835 28-787): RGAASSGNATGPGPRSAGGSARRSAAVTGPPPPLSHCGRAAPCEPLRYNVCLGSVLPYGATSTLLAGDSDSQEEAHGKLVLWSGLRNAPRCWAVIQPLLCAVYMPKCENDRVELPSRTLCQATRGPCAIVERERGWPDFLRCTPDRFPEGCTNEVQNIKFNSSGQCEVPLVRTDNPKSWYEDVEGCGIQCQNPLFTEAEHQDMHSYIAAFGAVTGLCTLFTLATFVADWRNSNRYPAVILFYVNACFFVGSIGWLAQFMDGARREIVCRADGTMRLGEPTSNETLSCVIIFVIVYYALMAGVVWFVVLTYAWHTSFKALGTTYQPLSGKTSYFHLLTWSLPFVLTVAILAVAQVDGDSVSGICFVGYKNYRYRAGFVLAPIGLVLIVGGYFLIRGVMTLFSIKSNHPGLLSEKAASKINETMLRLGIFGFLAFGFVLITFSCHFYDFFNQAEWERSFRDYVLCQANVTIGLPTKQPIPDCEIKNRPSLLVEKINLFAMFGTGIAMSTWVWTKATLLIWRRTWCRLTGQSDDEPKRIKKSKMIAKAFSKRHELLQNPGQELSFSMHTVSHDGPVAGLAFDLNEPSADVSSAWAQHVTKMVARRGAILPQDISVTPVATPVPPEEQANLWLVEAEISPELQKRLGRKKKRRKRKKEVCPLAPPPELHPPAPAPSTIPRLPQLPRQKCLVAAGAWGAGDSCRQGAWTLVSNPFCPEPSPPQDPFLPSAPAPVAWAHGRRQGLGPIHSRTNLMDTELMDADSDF
T2 sequence (Q99835 28-787): as above

Consider `COc1cc(C(=O)NC(=N)Nc2ccc(C)c(NC(=O)c3ccc(C(=O)c4ccccc4)cc3)c2)cc(OC)c1OC` [Compound 7a, N—(N-(3-(4-benzoylbenzamido)-4-methylphenyl)carbamimidoyl)-3,4,5-trimethoxybenzamide hydrochloride], for which, in the data set on C3H10T1/2 cells (setting [3]), the IC50 turned out to be 32 ± 11 nM.
Still for that read-out and setting: the result for `COc1cc(C(=O)NC(=N)Nc2ccc(C)c(NC(=O)c3ccc4c(c3)Cc3ccccc3-4)c2)cc(OC)c1OC` [Compound 7b, N-(2-methyl-5-(3-(3,4,5-trimethoxybenzoyl)guanidino)phenyl)-9H-fluorene-2-carboxamide hydrochloride] reads 28 ± 3 nM; that for `COc1cc(C(=O)NC(=N)Nc2ccc(C)c(NC(=O)c3ccc(C/C=C/c4ccccc4)cc3)c2)cc(OC)c1OC` [Compound 7e, (E)-N—(N-(3-(4-cinnamylbenzamido)-4-methylphenyl)carbamimidoyl)-3,4,5-trimethoxybenzamide hydrochloride], 57 ± 2 nM.
Same read-out and setting: the result for `COc1cc(C(=O)NC(=N)Nc2ccc(C)c(NC(=O)c3ccc(Cc4ccccc4)cc3)c2)cc(OC)c1OC` [Compound 7g, N—(N-(3-(4-benzylbenzamido)-4-methylphenyl)carbamimidoyl)-3,4,5-trimethoxybenzamide hydrochloride] reads 220 ± 25 nM; that for `COc1cc(C(=O)NC(=N)Nc2ccc(C)c(NC(=O)c3ccc(OCc4ccccc4)cc3)c2)cc(OC)c1OC` [Compound 7h, N—(N-(3-(4-(benzyloxy)benzamido)-4-methylphenyl)carbamimidoyl)-3,4,5-trimethoxybenzamide hydrochloride], 72 ± 15 nM.
Regarding `COc1cccc(CN(C(=O)CC(C)(C)C)[C@H]2C[C@@H](C(=O)N3CCNCC3)N(Cc3ccc4c(c3)OCO4)C2)c1` [Cur61414], the “Inhibition of the binding of compound 3H-(7d), in words” value in data set [1] (HEK-hSmo membranes) is reported as “micromolar order”.
For the compound `CS(=O)(=O)c1ccc(C(=O)Nc2ccc(Cl)c(-c3ccccn3)c2)c(Cl)c1` [GDC-0449], the “Effect on the binding of compound 3H-(7d) to non-transfected membranes” value in data set [2] is recorded as “no effect”. Moreover, the figures for the IC50 with PCGs of rat cerebellum (Rattus norvegicus), in the data set with C3H10T1/2 cells (setting [4]) and in the data set on C3H10T1/2 cells (setting [3]) were 8 ± 1 nM, 10 ± 3 nM and 10 ± 1 nM, respectively. Besides, the “Inhibition of the specific binding of compound 3H-(7d) at a single concentration” value in data set [1] (1 μM) was “completely inhibits”.
For `Cc1c(C(=O)Nc2ccc(N3C[C@@H](C)O[C@@H](C)C3)nc2)cccc1-c1ccc(OC(F)(F)F)cc1` [LDE225], the IC50 is 3 nM in the data set with PCGs of rat cerebellum (Rattus norvegicus); 8 ± 2 nM on human Smo receptor; 22 ± 3 nM in the data set on C3H10T1/2 cells (setting [4]); 22 ± 3 nM in the data set on C3H10T1/2 cells (setting [3]); 4 nM and 4.2 nM in data set [1] (setting [5]). In addition, in data set [1] (setting [6]), the Ki is 1.9 ± 0.3 nM.
For the compound `COc1cc(C(=O)NC(=S)Nc2cccc(NC(=O)c3ccccc3)c2)cc(OC)c1OC` [MRT-10], in the data set with C3H10T1/2 cells (SAG 0.1 μM, Mean ± SEM, n ≧ 3, read-out: IC50, differentiation of C3H10T1/2 cells), the IC50 amounted to 900 ± 200 nM.
For `COc1cc(C(=O)NC(N)=Nc2ccc(C)c(NC(=O)c3ccc(-c4ccccc4)cc3)c2)cc(OC)c1OC` [MRT-83], the IC50 in the data set on PCGs of rat cerebellum was 6 nM; at human Smo receptor, 5 ± 3 nM; in the data set with C3H10T1/2 cells (setting [7]), 11 ± 3 nM; in the data set on C3H10T1/2 cells (setting [8]), 11 ± 3 nM; in data set [1] (setting [5]), 11 nM and 10.5 nM. The “Block of the binding of BC to HEK-hSmo cells, in words” value at human Smo receptor (BC 5 nM, 2 hours) is “very similar and high”. Moreover, in data set [1] (setting [6]), the inhibitory constant (Ki) was 4.8 ± 1.2 nM.
In the case of `c1ccc2c(Oc3nc(Nc4ccc(N5CCOCC5)cc4)c4ncn(C5CCCCC5)c4n3)cccc2c1` [Purmorphamine, purmorphamine], the “IC50 ± SEM, binding of compound 3H-(7d)” value in data set [1] (0.35 nM 3H-(7d), HEK-hSmo membranes, 3 hours at 37° C.) was “inactive”. Besides, the “Inhibition of the binding of compound 3H-(7d), in words” value in data set [1] (HEK-hSmo membranes) is listed as “not active”. Moreover, in data set [1] (HEK-hSmo membranes, agonists (FIG. 5), read-out: IC50, binding of compound 3H-(7d), unit inferred), the IC50 was more than 1000 nM. The “Ki ± SEM, binding of compound 3H-(7d)” value in data set [1] (setting [6]) is “inactive”.
Consider `CNC1CCC(N(Cc2cccc(-c3ccncc3)c2)C(=O)c2sc3ccccc3c2Cl)CC1` (centres unmarked) [SAG], for which the IC50 in data set [1] (setting [5]) was 5 nM and 5.2 nM. Moreover, the Ki in data set [1] (setting [6]) is 2.4 ± 0.3 nM.
Take cyclopamine: the IC50 in the data set on PCGs of rat cerebellum amounted to 103 nM; in the data set on C3H10T1/2 cells (setting [7]) it was 620 ± 30 nM; in the data set on C3H10T1/2 cells (setting [8]), 620 ± 30 nM. Also, in the data set on cells, the “Concentration cytotoxic for the cells” value is on record as “above 10 μM”.

One may read the Ki as the equilibrium dissociation constant of an inhibitor or competing ligand from its target.
